Measured values from patent US20070060480A1, “Heteroaroyl-substituted phenylalanineamides” (priority 2003, published 2007).
Each block holds one molecule with its values, some of them ahead of it.

Columns and labels:
[1] = tested on: Chenopodium album; assay: greenhouse post-emergence herbicidal test; type: in vivo; settings: for post-emergence activity against lambsquarters: application rate 1.0 kg/ha
Procedure: (§1) The seeds of the test plants were sown separately for each species. For the post-emergence treatment, the test plants were grown to a plant height of from 3 to 15 cm, depending on the plant habit, and only then treated with the active ingredients which had been suspended or emulsified in water. To this end, the test plants were either sown directly and grown in the same containers, or they were first grown separately as seedlings and transplanted into the test containers a few days prior to treatment. […] (active substance). Depending on the species, the plants were kept at from 10 to 25° C. and 20 to 35° C., respectively. The test period extended over 2 to 4 weeks. During this time, the plants were tended, and their response to the individual treatments was evaluated. Evaluation was carried out using a scale of from 0 to 100. 100 means no emergence of the plants, or complete destruction of at least the aerial parts, and 0 means no damage or normal course of growth. The plants used in the greenhouse experiments belonged to the following species: [table]

[2] = tested on: Amaranthus retroflexus; assay: greenhouse post-emergence herbicidal test; type: in vivo; settings: for post-emergence activity against pig weed: application rate 1.0 kg/ha
Procedure: as §1

[3] = tested on: Setaria viridis; assay: greenhouse post-emergence herbicidal test; type: in vivo; settings: for post-emergence activity against green foxtail: application rate 1.0 kg/ha
Procedure: as §1

[4] = tested on: Echinocloa crus-galli; assay: greenhouse post-emergence herbicidal test; type: in vivo; settings: application rate 1.0 kg/ha
Procedure: as §1

[5] = tested on: Galium aparine; assay: greenhouse post-emergence herbicidal test; type: in vivo; settings: application rate 1.0 kg/ha
Procedure: as §1

[6] = tested on: Polygonum convolvulus; assay: greenhouse post-emergence herbicidal test; type: in vivo; settings: application rate 1.0 kg/ha
Procedure: as §1

SMILES: CNC(=O)C(NC(=O)c1cn(C)nc1C(F)(F)F)C(OS(C)(=O)=O)c1ccccc1 (racemic) [Compound 4.22]
post-emergence action on lambsquarters ([1]; application rate 0.5 kg/ha): very good
post-emergence action on pig weed ([2]; application rate 0.5 kg/ha): very good
post-emergence action on green foxtail ([3]; application rate 0.5 kg/ha): very good

SMILES: CNC(=O)C(NC(=O)c1cc(C)oc1C(F)(F)F)C(O)c1ccccc1 (racemic) [Compound 5.14]
post-emergence activity against lambsquarters [1]: very good
post-emergence activity against cockspur [4]: very good
post-emergence activity against green foxtail [3]: very good
post-emergence activity against cleavers harrif [5]: very good

SMILES: CNC(=O)C(NC(=O)c1cn(C)nc1C(F)(F)F)C(C)c1ccccc1C (mixture of isomers) [Compound 4.6]
post-emergence activity against lambsquarters [1]: very good
post-emergence activity against pig weed [2]: very good
post-emergence activity against green foxtail [3]: very good

melting point: 216 °C
SMILES: CNC(=O)C(NC(=O)c1cn(C)nc1C(F)(F)F)C(O)c1ccccc1 (racemic) [Compound 4.9, N-(2-Hydroxy-1-methylcarbamoyl-2-phenylethyl)-1-methyl-3-trifluoromethyl-1H-pyrazole-4-carboxamide]

melting point: 158 °C
SMILES: CNC(=O)C(NC(=O)c1cn(C)nc1C(F)(F)F)C(OC(=O)C(C)(C)C)c1ccccc1 (racemic) [Compound 4.15, 2-Methylcarbamoyl-2-[(1-methyl-3-trifluoromethyl-1H-pyrazole-4-carbonyl)amino]-1-phenylethyl 2,2-dimethylpropionate]

SMILES: CNC(=O)C(NC(=O)c1ccncc1C(F)(F)F)C(O)c1ccccc1 (racemic) [Compound 5.23]
post-emergence activity against lambsquarters [1]: very good
post-emergence activity against pig weed [2]: very good
post-emergence activity against green foxtail [3]: very good
post-emergence activity against cleavers harrif [5]: very good

SMILES: CNC(=O)C(NC(=O)c1ccsc1C(F)(F)F)C(OC(=O)COC)c1ccccc1 (racemic) [Compound 5.6]
post-emergence activity against lambsquarters [1]: very good
post-emergence activity against pig weed [2]: very good
post-emergence activity against green foxtail [3]: very good

SMILES: CCC(CC)C(=O)OC(c1ccccc1)C(NC(=O)c1cn(C)nc1C(F)(F)F)C(=O)NC (racemic) [Compound 4.14]
post-emergence activity against lambsquarters [1]: very good
post-emergence activity against pig weed [2]: very good
post-emergence activity against green foxtail [3]: very good

SMILES: CNC(=O)C(NC(=O)c1cc(C)oc1C(F)(F)F)C(OC(=O)N(C)C)c1ccccc1 (racemic) [Compound 5.16]
post-emergence activity against lambsquarters [1]: very good
post-emergence activity against cockspur [4]: very good
post-emergence activity against black bindweed [6]: very good
post-emergence activity against green foxtail [3]: very good

SMILES: CNC(=O)C(NC(=O)c1cscc1C(F)(F)F)C(OC(=O)N(C)C)c1ccccc1 (racemic) [Compound 5.8]
post-emergence activity against lambsquarters [1]: very good
post-emergence activity against cockspur [4]: very good
post-emergence activity against black bindweed [6]: very good
post-emergence activity against green foxtail [3]: very good
post-emergence activity against cleavers harrif [5]: very good
